Test results: US11993640B2, “Treating inflammatory lung disease” (United States Government as represented by the Department …, priority 2019, dated 2024)
Non-standard residues stand in square brackets, D forms with d. Residues, ends and D or L forms follow the SMILES beside them. *: point of attachment. Phenylacetyl(2,3,4,5,6-F5) = O=C(Cc1c(F)c(F)c(F)c(F)c1F)*; Phe(F5) = N[C@@H](Cc1c(F)c(F)c(F)c(F)c1F)C(=O)O; Phe(4-Cl) = N[C@@H](Cc1ccc(Cl)cc1)C(=O)O; hArg = N=C(N)NCCCC[C@H](N)C(=O)O; 12Ado = NCCCCCCCCCCCC(=O)O; Nle = CCCC[C@H](N)C(=O)O; Orn = NCCC[C@H](N)C(=O)O; Abu = CC[C@H](N)C(=O)O; PhAc = O=C(Cc1ccccc1)*

Key:
PC3 cells = assay: In vitro cell viability, prostatic cancer PC3; format: cell-based, human; conditions: 5 μM, 72 h; relative to MIA602 = 1; Table 3A
Experimental: (§1) The inhibitory effects of the various synthesized GHRH antagonists were tested in cell proliferation assays in various human cancer cell lines including stomach cancer (KATOIII, N87), colon cancer (HT-29), urothelial cancer (J82, RT4), pancreatic cancer (PANC-1, CFPAC-1), prostatic cancer (PC3), breast cancer (MX-1, HCC1806), ovarian cancer (SK-OV-3, OVCAR-3) and lung cancer (HCC827, H460).
(§2) Cell culture. Human cancer cell lines including pancreatic (PANC-1 and CFPAC-1), lung (HCC827 and H460), stomach (NCI-N87 and KATOIII), urothelial (J82, RT4), prostatic (PC3), breast (MX-1 and HCC 1806), colorectal (HT-29), and ovarian (SK-OV-3 and OVCAR-3) were obtained from the American Type Culture Collection (ATCC) and cultured at 37° C. in a humidified 95% air/5% CO2 atmosphere in the medium recommended by ATCC.
(§3) In vitro cell viability. Cell viability was analyzed as follows: cancer cells including pancreatic (PANC-1 and CFPAC-1), lung (HCC827 and H460), stomach (NCI-N87 and KATOIII), urothelial (J82, RT4), prostatic (PC3) and breast (MX-1 and HCC 1806), colorectal (HT-29) and ovarian (SK-OV-3 and OVCAR-3) were grown on 96 well plates to ˜60% confluence, the cells were starved for 24 h in culture medium containing 0.5% FBS. Cells were then treated with GHRH antagonists MIA602 AVR compounds at concentrations of 1, 2.5 or 5 μM, or vehicle (0.1% DMSO) in quintuplicates for 72 hours. The medium was replaced every 48 hours. Cell viability was measured using CellTiter 96 aqueous one solution kit (Promega). Inhibitory effects of tested AVR compounds in comparison to that of MIA602 are presented as inhibitory potency.
Inhibitory effects of selected AVR compounds in comparison to that of MIA602 are presented as inhibitory potency (e.g., percentage of inhibition). […] The cell lines tested including lung cancer HCC827 (FIG. 2A), pancreatic cancer CFPAC-1 (FIG. 2B), stomach cancer N87 (FIG. 2C), colon cancer HT-29 (FIG. 2D), breast cancers MX-1 and HCC1806 (FIGS. 2E, F). […]

PANC-1 cells = assay: In vitro cell viability, pancreatic cancer PANC-1; format: cell-based, human; conditions: 5 μM, 72 h; relative to MIA602 = 1; Table 3A
Experimental: as §1, §2, §3
(§4) Inhibitory effects of selected AVR compounds in comparison to that of MIA602 are presented as inhibitory potency (e.g., percentage of inhibition). […] The cell lines tested including lung cancer HCC827 (FIG. 2A), pancreatic cancer CFPAC-1 (FIG. 2B), stomach cancer N87 (FIG. 2C), colon cancer HT-29 (FIG. 2D), breast cancers MX-1 and HCC1806 (FIGS. 2E, F). Based on the results of cell proliferation assay after cancer cells were treated with antagonist at concentration of 5 μM for 72H, the relative inhibitory potency of AVR antagonists in comparison to MIA-602 is summarized in Table 3 A and B. Over 60 AVR compounds were tested in 12 cancer cell lines.

CFPAC-1 cells = assay: In vitro cell viability, pancreatic cancer CFPAC-1; format: cell-based, human; conditions: 5 μM, 72 h; relative to MIA602 = 1; Table 3A
Experimental: as §1, §2, §3, §4
(§5) Based on the results of cell proliferation assay after cancer cells were treated with antagonist at concentration of 5 µM for 72H, * at concentration of 2 µM for 72 H.

HCC1806 cells = assay: In vitro cell viability, breast cancer HCC1806; format: cell-based, human; conditions: 5 μM, 72 h; relative to MIA602 = 1; Table 3A
Experimental: as §1, §2, §3, §4, §5

KATOIII cells = assay: In vitro cell viability, stomach cancer KATOIII; format: cell-based, human; conditions: 5 μM, 72 h; relative to MIA602 = 1; Table 3A
Experimental: as §1, §2, §3, §4

MX-1 cells = assay: In vitro cell viability, breast cancer MX-1; format: cell-based, human; conditions: 5 μM, 72 h; relative to MIA602 = 1; Table 3A
Experimental: as §1, §2, §3, §4, §5

HCC827 cells = assay: In vitro cell viability, lung cancer HCC827; format: cell-based, human; conditions: 5 μM, 72 h; relative to MIA602 = 1; Table 3A
Experimental: as §1, §2, §3, §4, §5

J82 cells = assay: In vitro cell viability, urothelial cancer J82; format: cell-based, human; conditions: 5 μM, 72 h; relative to MIA602 = 1; Table 3A
Experimental: as §1, §2, §3, §4

NCI-N87 cells = assay: In vitro cell viability (CellTiter 96), stomach cancer N87; format: cell-based, human; conditions: 5 μM, 72 h
Experimental: as §1, §2, §3, §4, §5

NCI-N87 xenograft = assay: Xenograft tumor growth in nude mice, stomach cancer N87; format: in vivo; conditions: Panel D, 10 weeks, 2 μg/day s.c.
Experimental: The peptides' activity was compared with GHRH antagonist MIA-602. All statistical analyzses were performed from comparing GHRA antagonists to non-treated tumor (control).
Peptides and chemicals. GHRH antagonists MIA-602 and AVR-GHRH antagonists (see Table 2 above) were synthesized by solid phase methods and purified by HPLC. The peptides were dissolved in DMSO and further diluted in 10% 1, 2-propanediol. The final concentration of peptides was 50 µg/ml in 10% 1, 2-propanediol containing 0.1% of DMSO.
as §2, with “(NCI-N87), prostate” for “(NCI-N87 and KATOIII), urothelial (J82, RT4), prostatic”, “brest” for “breast”, “HCC-1806),” for “HCC 1806),”
Xenograft models of human cancers in nude mice. Female athymic (NCr nu/nu) nude mice, 5-to 6-weeks-old, obtained from the Envigo labs (Tampa, FL), were housed in laminar airflow cabinets under pathogen-free conditions with a 12-h light/12-h dark schedule, and were fed autoclaved standard chow and water. To generate mice with xenografted tumors, tumor xenografts were initiated by subcutaneous (s.c.) injection of […] human cancer cells into female nude mice. After about 4 weeks the resulting tumors were dissected and collected after removing necrosis tissues. The tumors were then cut into particles with size of ˜3 mm3 and transplanted s.c. by trocar needle into experimental animals. When tumors grew to the size of 50-60 mm3 (by volume), […] of 5 μg of GHRH antagonists MIA-602 or AVR-compounds (2-10 μg as indicated), or vehicle solutions (0.1% DMSO in 10% 1, 2-propanediol) respectively. Tumor sizes were measured weekly.
Statistical analysis. One-way ANOVA followed by Bonferroni comparison were performed. Data are expressed as Mean±SEM. To determine statistical significance between animal groups, two-tailed Student's t-test was conducted. Differences were considered significant when p<0.05.
Results. […] FIG. 1A-N represents in vivo inhibition of tumor growth during the treatment with GHRH antagonist MIA-602 and selected AVR antagonists in nude mice xenografted with various human tumors including pancreatic cancer PANC-1 (FIG. 1A) and CFPAC-1 (FIG. 1I); lung cancer HCC827 (FIGS. 1B, C) and H460 (FIG. 1H); stomach cancer N87 (FIGS. 1D-F); colon cancer HT-29 (FIG. 1G); breast cancer MX-1 and HCC-1806 (FIGS. 1J, K); ovarian cancer SK-OV-3 and OVACAR-3 (FIGS. 1L, M) and prostate cancer PC3 (FIG. 1N). See also Table 5.

Structure (SMILES)	Relative inhibitory potency, Prostatic PC3 (PC3 cells)	Relative inhibitory potency, Pancreatic Panc-1 (PANC-1 cells)	Relative inhibitory potency, Pancreatic CFPAC-1 (CFPAC-1 cells)	Relative inhibitory potency, Breast HCC1806 (HCC1806 cells)	Relative inhibitory potency, Stomach KATOIII (KATOIII cells)	Relative inhibitory potency, Breast MX-1 (MX-1 cells)	Relative inhibitory potency, Lung HCC827 (HCC827 cells)	Relative inhibitory potency, Urothelial J82 (J82 cells)	Relative inhibitory potency, Stomach N87 (NCI-N87 cells; relative to MIA602 = 1, Table 3A)	Tumor Growth % (NCI-N87 xenograft) [%]	In vitro relative inhibitory potency in comparison to MIA-602, NCI-N87 (NCI-N87 cells; Table 3B)
CCCC[C@H](NC(=O)[C@@H](NC(=O)[C@H](CC(=O)O)NC(=O)[C@H](CCC(N)=O)NC(=O)[C@H](CC(C)C)NC(=O)[C@H](CC(C)C)NC(=O)[C@H](CCCCN)NC(=O)[C@H](CCCNC(=N)N)NC(=O)[C@H](C)NC(=O)[C@H](CO)NC(=O)[C@H](CC(C)C)NC(=O)[C@H](CCC(N)=O)NC(=O)[C@H](CC)NC(=O)[C@H](CC(C)C)NC(=O)[C@@H](NC(=O)[C@H](CCCCN)NC(=O)[C@H](CCCNC(=N)N)NC(=O)[C@H](Cc1ccc(O)cc1)NC(=O)[C@H](CCCNC(=N)N)NC(=O)[C@H](C)NC(=O)[C@@H](NC(=O)[C@H](Cc1ccc(Cl)cc1)NC(=O)[C@@H](NC(=O)[C@H](C)NC(=O)[C@H](CC(=O)O)NC(=O)[C@@H](CCCNC(=N)N)NC(=O)[C@H](Cc1ccc(O)cc1)NC(=O)CCCCCCCCCCCNC(=O)Cc1ccccc1)[C@@H](C)CC)[C@@H](C)O)C(C)C)[C@@H](C)CC)C(=O)N[C@H](CCCNC(=N)N)C(=O)N[C@@H](CCCCNC(=N)N)C(N)=O [AVR-107, PhAC-Ada-Tyr-DArg-Asp-Ala-Ile-Cpa-Thr-Ala-Arg-Tyr-Arg-Lys-Val-Leu-Abu-Gln-Leu-Ser-Ala-Arg-Lys-Leu-Leu-Gln-Asp-Ile-Nle-DArg-Har-NH2] ({PhAc-12Ado}-Y[dR]DAI[Phe(4-Cl)]TARYRKVL[Abu]QLSARKLLQDI[Nle][dR][hArg]-NH2)	0.800	1.160	1.080	0.950	1.295	1.010					
CCCC[C@H](NC(=O)[C@@H](NC(=O)[C@H](CC(=O)O)NC(=O)[C@H](CCC(N)=O)NC(=O)[C@H](CC(C)C)NC(=O)[C@H](CC(C)C)NC(=O)[C@H](CCCN)NC(=O)[C@H](Cc1c[nH]cn1)NC(=O)[C@H](C)NC(=O)[C@H](CO)NC(=O)[C@H](CC(C)C)NC(=O)[C@H](CCC(N)=O)NC(=O)[C@H](CC)NC(=O)[C@H](CC(C)C)NC(=O)[C@@H](NC(=O)[C@H](CCCCN)NC(=O)[C@H](CCCNC(=N)N)NC(=O)[C@H](Cc1c(F)c(F)c(F)c(F)c1F)NC(=O)[C@H](CCCNC(=N)N)NC(=O)[C@H](C)NC(=O)[C@@H](NC(=O)[C@H](Cc1ccc(Cl)cc1)NC(=O)[C@@H](NC(=O)[C@H](C)NC(=O)[C@H](CC(=O)O)NC(=O)[C@@H](CCCNC(=N)N)NC(=O)[C@H](Cc1ccc(O)cc1)NC(=O)CCCCCCCCCCCNC(=O)Cc1ccccc1)[C@@H](C)CC)[C@@H](C)O)C(C)C)[C@@H](C)CC)C(=O)N[C@H](CCCNC(=N)N)C(=O)N[C@@H](CCCCNC(=N)N)C(N)=O [AVR-116, PhAC-Ada-Tyr-DArg-Asp-Ala-Ile-Cpa-Thr-Ala-Arg-5FPhe-Arg-Lys-Val-Leu-Abu-Gln-Leu-Ser-Ala-His-Orn-Leu-Leu-Gln-Asp-Ile-Nle-DArg-Har-NH2] ({PhAc-12Ado}-Y[dR]DAI[Phe(4-Cl)]TAR[Phe(F5)]RKVL[Abu]QLSAH[Orn]LLQDI[Nle][dR][hArg]-NH2)		1.208	1.445		1.202		2.470	3.034	2.484		
CCCC[C@H](NC(=O)[C@@H](NC(=O)[C@H](CC(=O)O)NC(=O)[C@H](CCC(N)=O)NC(=O)[C@H](CC(C)C)NC(=O)[C@H](CC(C)C)NC(=O)[C@H](CCCCN)NC(=O)[C@H](CCCNC(=N)N)NC(=O)[C@H](C)NC(=O)[C@H](CO)NC(=O)[C@H](CC(C)C)NC(=O)[C@H](CCC(N)=O)NC(=O)[C@H](CC)NC(=O)[C@H](CC(C)C)NC(=O)[C@@H](NC(=O)[C@H](CCCCN)NC(=O)[C@H](CCCNC(=N)N)NC(=O)[C@H](Cc1ccc(OC)cc1)NC(=O)[C@H](CCCCNC(=N)N)NC(=O)[C@H](CC(N)=O)NC(=O)[C@@H](NC(=O)[C@H](Cc1ccc(Cl)cc1)NC(=O)[C@@H](NC(=O)[C@H](C)NC(=O)[C@H](CC(=O)O)NC(=O)[C@@H](CCCNC(=N)N)NC(=O)[C@H](Cc1ccc(O)cc1)NC(=O)CCCCCCCCCCCNC(=O)Cc1c(F)c(F)c(F)c(F)c1F)[C@@H](C)CC)[C@@H](C)O)C(C)C)[C@@H](C)CC)C(=O)N[C@H](CCCNC(=N)N)C(=O)N[C@@H](CCCCNC(=N)N)C(=O)NCCCCCCCCCCCC(N)=O [AVR-333, 5FPhAC-Ada-Tyr-DArg-Asp-Ala-Ile-Cpa-Thr-Asn-Har-Tyr(Me)-Arg-Lys-Val-Leu-Abu-Gln-Leu-Ser-Ala-Arg-Lys-Leu-Leu-Gln-Asp-Ile-Nle-DArg-Har-Ada-NH2] ({Phenylacetyl(2,3,4,5,6-F5)-12Ado}-Y[dR]DAI[Phe(4-Cl)]TN[hArg]Y(Me)RKVL[Abu]QLSARKLLQDI[Nle][dR][hArg][12Ado]-NH2)										454.00	1.4
